Blank lines part the entries; values can stand above or below the compound they belong to.
What was measured:
[1] = Stability constant (binding ability) towards manganese; conditions: relative to the EDTA chelate
[2] = in vivo
[3] = in vivo; cited from earlier work
[4] = in vivo; cited from earlier work; remark: listed apart in the source
[5] = Relaxivities (T1, T2) of protons in water exposed to the complexes; type: physicochemical; conditions: Table 5
Procedure: (§1) c) Relaxitivities of protons present in water and plasma exposed to the complexes of (a) and (b) (at 10 mHz) (37° C.) in milliseconds:
(§2) c) Relaxivities of protons present in water and plasma exposed to (a) and (b) at 10 mHz (37 C) in milliseconds: […]

[6] = Relaxivities (T1, T2) of protons in plasma exposed to the complexes; type: physicochemical
Procedure: as §1, §2

[7] = Table 5, 1.56 × 10^-3 moles/liter
[8] = Table 5, 3.13 × 10^-3 moles/liter
[9] = Table 5, 6.25 × 10^-3 moles/liter

Structure (SMILES): O=C(O)CN(CC(=O)O)[C@@H]1CCCC[C@H]1N(CC(=O)O)CC(=O)O (relative stereo) [DCTA, trans-N,N,N',N'-tetra-carboxymethyl-1,2-diaminocyclohexane]
Stability constant (binding ability) towards manganese [1]: several thousand times better

T1 water ([5]; 1.56 × 10^-3 moles/liter): 163 ms
T2 water ([5]; 1.56 × 10^-3 moles/liter): 155 ms
T1 water ([5]; 1.95 × 10^-4 moles/liter): 1015 ms
T1 water ([5]; 3.13 × 10^-3 moles/liter): 83 ms
T2 water ([5]; 3.13 × 10^-3 moles/liter): 76 ms
T1 water ([5]; 3.91 × 10^-4 moles/liter): 582 ms
T1 water ([5]; 6.25 × 10^-3 moles/liter): 40 ms
T2 water ([5]; 6.25 × 10^-3 moles/liter): 35 ms
T1 water ([5]; 7.81 × 10^-4 moles/liter): 309 ms
T1 plasma ([6]; 9.77 × 10^-5 moles/liter): 877 ms
T1 plasma [6, 7]: 134 ms
T2 plasma [6, 7]: 116 ms
T1 plasma ([6]; Table 5, 1.95 × 10^-4 moles/liter): 636 ms
T1 plasma [6, 8]: 69 ms
T2 plasma [6, 8]: 61 ms
T1 plasma ([6]; Table 5, 3.91 × 10^-4 moles/liter): 405 ms
T1 plasma [6, 9]: 39 ms
T2 plasma [6, 9]: 31 ms
T1 plasma ([6]; Table 5, 7.81 × 10^-4 moles/liter): 240 ms
Structure (SMILES): O=C([O-])CN(CCN(CC(=O)[O-])CC(=O)O)CCN(CC(=O)[O-])CC(=O)O.[Gd+3] [Gd DTPA, gadolinium chelate of diethylene-triamine-pentaacetic acid]
Organ distribution [2]: does not substantially interact with the hepatobiliary system
Uptake by solid organs [3]: virtually no uptake by any solid organ
Post T1 fat [4]: 185 milliseconds
Post T1 kidneys [4]: 205 milliseconds
Post T1 liver [4]: 195 milliseconds
Post T1 muscle [4]: 335 milliseconds
Post T1 spleen [4]: 285 milliseconds

— US5039512A, “NMR imaging with paramagnetic polyvalent metal salts of poly-(acid-alkylene-amino)-alkanes” (Salutar, Inc., priority 1987, dated 1991)
